The values that follow come from paper PMC7795089, “Antimalarials and Phytotoxins from Botryosphaeria dothidea Identified from a Seed of Diseased Torreya taxifolia” (Molecules, 2020).

Data set [1] in a line: In vitro cytotoxicity assay (neutral red), Vero cells. It is filed as cell-based. Particulars: African green monkey, Vero cells (kidney fibroblasts). On the procedure:
(§1) Cells were seeded to the wells of a 96-well plate at a density of 25,000 cells/well and incubated for 24 h. Samples at different concentrations were added and plates were again incubated for 48 h. The number of viable cells was determined by using neutral red dye and IC50 values were obtained from dose response curves. Doxorubicin was used as a positive control.

Data set [2] deals with Plasmodium falciparum W2 (chloroquine-resistant) strain. Description: microbe, parasite or virus in culture. Type of data set: cell-based. Particulars: for IC50: Plasmodium falciparum.
Data set [3] deals with Plasmodium falciparum D6 (chloroquine-sensitive) strain. Description: In vitro antiplasmodial assay, chloroquine-sensitive (D6) clone. Particulars: for IC50: Plasmodium falciparum. Type of data set: cell-based.
In data set [4] the test system is human leukemia HL-60 cells. Also on record: method as in PMID 30935798. Particulars: enantiomers and racemate of compound 2; comparable to positive control irinotecan; cited from earlier work.
Another data set concerns Bacillus subtilis. More on the design: method as in PMID 30935798. Particulars: enantiomers and racemate of compound 2; cited from earlier work.
The nature of data set [5]: In vitro cytotoxicity assay (neutral red), SK-OV-3. Type of data set: cell-based. Particulars: human, SK-OV-3 cells (ovarian carcinoma), 48 h incubation, read-out: Cytotoxic activity IC50, SK-OV-3. The method, then:
as §1

Data set [6] in a line: In vitro cytotoxicity assay (neutral red), KB. Type of data set: cell-based. Particulars: human, KB cells (oral epidermal carcinoma), 48 h incubation, read-out: Cytotoxic activity IC50, KB. The method, then: as §1
The nature of data set [7]: In vitro cytotoxicity assay (neutral red), BT-549. Type of data set: cell-based. Particulars: human, BT-549 cells (breast ductal carcinoma), 48 h incubation, read-out: Cytotoxic activity IC50, BT-549. On the procedure:
as §1

Data set [8] is described as follows: In vitro cytotoxicity assay (neutral red), SK-MEL. Type of data set: cell-based. Particulars: human, SK-MEL cells (malignant melanoma), 48 h incubation, read-out: Cytotoxic activity IC50, SK-MEL. The method, then:
as §1

Data set [9] is described as follows: In vitro cytotoxicity assay (neutral red), LLC-PK11. It is filed as cell-based. Particulars: pig, 48 h incubation, read-out: Cytotoxic activity IC50, LLC-PK11. The method, then:
as §1

A further data set concerns Plasmodium. Also on record: method as in PMID 32043422. Particulars: cited from earlier work.
[10] abbreviates: W2, read-out: Chloroquine-Resistant (W2)-Clone IC50.
The mark [11] stands for this setting: D6, read-out: Chloroquine-Sensitive (D6)-Clone IC50.

Where two headings read alike, the source gives them in different places.

Consider `C[C@@H]1CC[C@H]2[C@@H](C)C(=O)O[C@@H]3O[C@@]4(C)CC[C@@H]1[C@]32OO4` [Artemisinin], for which the IC50 at 48 h in data set [1] is greater than 4.76 µg/mL.

`CCN(CC)CCCC(C)Nc1ccnc2cc(Cl)ccc12` (stereo not shown) [Chloroquine]: the IC50 at 48 h in [1] is greater than 4.76 µg/mL. For the same molecule, the half-inhibitory concentration (IC50) is 0.16 µg/mL in data set [2] (setting [10]); 0.31 µM in data set [2] (W2, read-out: Chloroquine-Resistant (W2)-Clone IC50 (µM, in parentheses)); 0.016 µg/mL in [3] (setting [11]); 0.03 µM in [3] (D6, read-out: Chloroquine-Sensitive (D6)-Clone IC50 (µM, in parentheses)).

For `CC1=CC(=O)C2(OC2C(=O)CC(C)C)C(=O)N1` (stereo not shown) [Compound 2, flavipucine], the “cytotoxic activity against human leukemia HL-60 cells” value in [4] is “strong cytotoxic activity”. Further, the “antibacterial activity against Bacillus subtilis” value in the data set with Bacillus subtilis is on record as “moderate antibacterial activity”.

In turn, `C\C=C(/C=C(C)/C=C/CC/C=C(\C)C(=O)C1=CC(C)(OC)NC1=O)C(=O)OC` (stereo not shown) [Compound 3, dothilactaene A] displayed an IC50 at 48 h in data set [1] greater than 4.76 µg/mL. For the same molecule, the “Chloroquine-Resistant (W2)-Clone IC50” value in data set [2] (P. falciparum W2, concentration causing 50% growth inhibition, highest concentration tested […]) is “inactive”. Further, the concentration for half-maximal inhibition (IC50) in data set [2] (setting [10]) and in data set [3] (setting [11]) was greater than 4.76 µg/mL each time. In data set [3] (P. falciparum D6, concentration causing 50% growth inhibition, highest concentration tested […]), the “Chloroquine-Sensitive (D6)-Clone IC50” value is “inactive”.

Take `COc1cccc2c1C(=O)c1c(O)c3c(c(O)c1C2=O)C[C@@](O)(C(=O)CO)C[C@@H]3O[C@H]1C[C@H](N)[C@H](O)[C@H](C)O1` [Doxorubicin]: the IC50 at 48 h was 1.47 µM in data set [5]; 2.12 µM in data set [6]; 1.83 µM in data set [7]; 1.29 µM in data set [8]; 1.28 µM in data set [9].

Regarding `C\C=C(/C=C(C)/C=C/C=C/C=C(\C)C(=O)[C@H]1C(=O)N[C@]2(O)CCO[C@H]12)C(=O)OC` [lucilactaene], in the data set with Plasmodium, the antiplasmodial activity entry is recorded as “potent antiplasmodial activity”.

In general, IC50 refers to the concentration that inhibits the measured activity by half.
